According to patent US5792745A, “Use of peptides for altering bone resorption” (La Jolla Cancer Research Center, priority 1995, dated 1998):
“Also recorded” adds a separate entry of the source. Where a SMILES comes first, the peptide text is derived from it. Bridges are numbered along the chain shown (N, C = ends). [ ]: non-standard residue; d: D form. Tic = O=C(O)[C@@H]1Cc2ccccc2CN1; Mpa = O=C(O)CCS

Key:
αv β3 receptor = target: T1, αv β3 receptor (Homo sapiens, UniProt P05106+P06756); test: αv β3 ELISA (competitive); type: binding; conditions: ELISA / JY cell IC50 values of FIG. 2 compared
T1 construct: The αv β3 receptor was purified from octyl-glucopyranoside-extracted human placenta; from tissue
Description: Peptide binding to purified αv β3 receptor was determined by using a competitive ELISA, in which αv β3 receptor was immobilized and the binding of solubilized VN, in the presence of various concentrations of peptide analogue, was detected using a monoclonal mouse IgG anti-VN antibody and a labelled anti-mouse IgG conjugate.
50 μl of Vn in the same buffer then was added to each well.
The development process was stopped by adding 50 μl to 4N H2 SO4 to each well. The plates were read at 490 nm and the data analyzed by four parameter fit.

[1] = system: integrin receptors / osteoclasts; test: series of assays of Examples II and III for potency and selectivity (summary); conditions: for activity of minimal-element peptides (in words): FIG. 2
From the text: Peptides of the RGDNTic (SEQ ID NO: 31) pharmacophore group are characterized, in general, as having increased potency, whereas the peptides of the pharmacophore RGDDV (SEQ ID NO: 1) group generally have higher receptor selectivity. […] As used herein, the term "potency" or "potent" means that a peptide of the invention is active at a relatively low concentration in the assays described in Examples II and III. A potent peptide of the invention can be identified, for example, using the assays described in Examples II and III.
The present invention also provides a series of in vitro and in vivo assays useful for screening a panel of peptides in order to identify peptides that can reduce or inhibit bone resorption or that can alter integrin binding such as αv β3 integrin receptor-mediated binding. Such peptides can include, for example, peptides within the pharmacophore groups exemplified herein or peptides within other pharmacophore groups. The series of assays disclosed herein is particularly useful for determining the selectivity and potency of a peptide for reducing or inhibiting bone resorption. The selectivity of a peptide for an integrin receptor involved in osteoclast binding to bone can be determined, for example, using the integrin receptor assays and cell attachment and detachment assays described herein. Use of cell-based assays in conjunction with receptor-based assays is informative because the receptor ELISAs provide useful information regarding the binding characteristics of a particular peptide toward a particular integrin and because the cell-based assays confirm that those characteristics are relevant to the αv β3 receptor or to bone resorption.

osteoclasts = conditions: cited from earlier work
bone resorption = conditions: cited from earlier work
neointimal hyperplasia = conditions: rabbit, in vivo; cited from earlier work
[2] = system: parathyroid hormone-induced hypercalcemia; test: parathyroid hormone-induced hypercalcemia in mice; type: in vivo; conditions: parathyroidectomized mice, 4 hr peptide infusion, FIG. 9
α5 β1 (FnR) = target: T2, α5 β1 (FnR) (Homo sapiens, UniProt P05556+P08648); test: α5 β1 ELISA (competitive); type: binding; conditions: comparison of ELISA values
T2 construct: Fibronectin receptor (FnR) was purified from 100 mM octyl-glucopyranoside-extracted human placenta; from tissue
Description: Peptide binding to purified human αv β5 and αv β3, which are VnR's, and to α5 β1, which is a FnR, was determined using competitive ELISA assays as described below. If desired, an αIIb β3 ELISA can be performed as described in W091/15515.
Peptide binding to purified human α5 β1 (FnR) also was determined using a competitive ELISA. In these assays, Fn was immobilized to the wells and the binding of solubilized FnR in the presence of various concentrations of a peptide analogue was determined using a mouse monoclonal antibody to human β1 (clone P4C10; Gibco) and specific binding was visualized using a second antibody.
Microtiter wells were coated at RT by adding 100 μl of 2 μg/ml human Fn in TBS and incubating the plates overnight at 4° C. Following incubation, the plates were washed 3× with TBS/"TWEEN 20" (polyoxyethylenesorbitan monolaurate). RGD peptides were diluted in TBS containing 20 mM OG and 2 mM MnCl2 and 50 μl was added to wells at 10-fold serial dilutions. FnR was diluted in the same buffer and 50 μl was added to each well.
The plates were incubated for 3 hr at RT and washed with 300 μl TBS/"TWEEN 20" (polyoxyethylenesorbitan monolaurate). Bound receptor was incubated with 100 μl of the monoclonal anti-β1 antibody for 2 hr, then washed 3× with TBS/"TWEEN 20" (polyoxyethylenesorbitan monolaurate). […] The amount of bound second antibody was determined as described above. […]

chick osteoclasts = test: chick cell detachment assay (osteoclasts vs total cells); type: cell-based; conditions: FIG. 5
rat osteoclasts = test: rat osteoclast attachment assay compared with MG63 / NRK cell attachment; type: cell-based; conditions: FIGS. 7 and 8 compared
Description: 3. Rat osteoclast attachment assay
To determine the effect of a peptide on the attachment of rat osteoclasts in vitro, 100 μl aliquots of the rat pup bone cell suspension described in Example II.B.2., above, were added in triplicate to 96 well MAXISORP plates coated with specific substrates or with FCS. Substrate coated plates were used to determine the ability of peptides to inhibit attachment or induce detachment of an osteoclast from a ligand such as vitronectin, fibronectin, osteopontin or collagen I (Collaborative Research), which are ligands present in bone. Substrates were added to 96 well plates (50 μl of a 5-10 μg/ml solution in sodium carbonate, pH 9.5) and incubated for 2 hr at 37° C. For FCS control wells, 100 μl 10% FCS was added. Wells were aspirated, then washed 2× with PBS and blocked with 1% bovine serum albumin in PBS for 2 hr at 37° C. Wells were aspirated and washed again 2× with PBS. Cells were seeded in duplicate at 4×10^4 cells/well. […]
Following incubation, the medium and nonadherent cells were removed by aspiration from each well. […] Adherent osteoclasts were counted by light microscopy. […]
MG63 and NRK cell lines were purchased from ATTC (Rockville, Md.). […] Following staining, the stain was extracted with 20% acetic acid and the OD562 of the extracted stain was determined. […]
Selectivity of a peptide can be determined by comparing the results of FIGS. 7 and 8 (see, also FIG. 2).

## CC(C)[C@@H]1NC(=O)[C@H](CC(=O)O)NC(=O)[C@H](CC(=O)O)NC(=O)CNC(=O)[C@H](CCCNC(=N)N)NC(=O)CNC(=O)C[C@@H](C(N)=O)NC1=O [peptide 368] (GRGDDVD-NH2; lactam N-7)
αv β3 receptor
  receptor selectivity for αv β3 versus αv β5 and α5 β1 (comparison of IC50 values): receptor selective for αv β3; also recorded: selective peptide
[1]
  both potent and selective (summary classification): both potent and selective
  receptor selectivity (summary classification): particularly receptor selective

## Echistatin
osteoclasts
  binding to osteoclasts (literature): binds to osteoclasts in a nonselective manner
osteoclasts; in vitro
  inhibition of bone resorption in vitro (literature): inhibits bone resorption in vitro
Bone resorption
  inhibition of bone resorption in vivo (literature): inhibits bone resorption

## G(Pen)GRGDSPCA
Neointimal hyperplasia
  inhibition of neointimal hyperplasia (literature): can inhibit neointimal hyperplasia

## CC(C)[C@@H]1NC(=O)[C@H](CC(=O)O)NC(=O)[C@H](CC(=O)O)NC(=O)CNC(=O)[C@H](CCCNC(=N)N)NC(=O)CCSSC[C@@H](C(N)=O)NC1=O [compound 191] ([Mpa]RGDDVC-NH2; disulfide 1-7)
[2]
  PTH-induced change in serum ionized calcium: decreased the PTH-induced rise in serum ionized calcium in a dose responsive manner

## CC(=O)N[C@H]1CSSC[C@@H](C(N)=O)NC(=O)[C@@H]2Cc3ccccc3CN2C(=O)[C@H](CO)NC(=O)[C@H](CC(=O)O)NC(=O)CNC(=O)[C@H](CCCNC(=N)N)NC1=O [compound 812, Ac-CRGDS(Tic)C-NH2] (Ac-CRGDS[Tic]C-NH2; disulfide 1-7)
[1]
  activity of minimal-element peptides (in words): demonstrate activity

## N=C(N)NCCC[C@@H]1NC(=O)CC[C@@H](C(N)=O)NC(=O)[C@@H]2CCCN2C(=O)[C@H](CO)NC(=O)[C@H](CC(=O)O)NC(=O)CNC1=O [compound 825] (RGDSPE-NH2; lactam N-6)
α5 β1 (FnR)
  receptor selectivity for α5 β1 versus αv β5: more selective toward α5 β1 than toward αv β5

## CC(C)[C@@H]1NC(=O)[C@H](CC(=O)O)NC(=O)[C@H](CC(=O)O)NC(=O)CNC(=O)[C@H](CCCNC(=N)N)NC(=O)CC[C@@H](C(N)=O)NC1=O [peptide 386, RGDDVE-NH2] (RGDDVE-NH2; lactam N-6)
Chick osteoclasts
  selective detachment of osteoclasts versus other cell types: caused selective detachment of osteoclasts as compared to other cell types
Rat osteoclasts
  selectivity: osteoclast attachment versus MG63 or NRK attachment: selective
[2]
  PTH-induced change in serum ionized calcium: relatively low level of serum calcium
[1]
  activity of minimal-element peptides (in words): demonstrate activity

## C[C@@H]1NC(=O)[C@H](CCCNC(=N)N)NC(=O)CNC(=O)CC[C@@H](C(N)=O)NC(=O)[C@@H]2CCCN2C(=O)[C@H](CC(N)=O)NC(=O)[C@H](CC(=O)O)NC(=O)CNC(=O)[C@H](CCCNC(=N)N)NC1=O [compound 390] (GRARGDNPE-NH2; lactam N-9)
α5 β1 (FnR)
  receptor selectivity for α5 β1 versus αv β5: more selective toward α5 β1 than toward αv β5
